{"source": "patent US20080089851A1", "about": "“Brown Algae Cell Lyophilisate, Method For The Obtention Thereof” (BIOTECHMARINE, priority 2005, published 2008)", "conditions_in_all_cases": "for Capture of [^3H]choline: DPA 1 mM", "key": {"[1]": {"tested_on": "normal human keratinocytes", "test": "Transport of lipids (choline), normal human keratinocytes", "type": "cell-based", "procedure": "(§1) The obtained microsomes from human keratinocytes in culture were rinsed 3 times with 25 mM Tris buffer, then preincubated in 1 ml of the same buffer for 30 minutes at 37° C. This solution was then discarded and the microsomes were placed into the 25 mM Tris buffer containing [^3H] Choline with stirring in a water bath at 37° C. The capture of choline was stopped by addition of a lysis buffer containing (50 mM de Tris, 140 mM NaCl, 1.5 mM MgSO4, 0.5% Igepal-Ca-630, 0.2% SDS). The kinetics of incubation was performed between 30 and 120 seconds. Subsequently, the microsomes were rinsed 2 times with PBS then dissolved in NaOH (1M) at 4° C. over night. The radioactivity was determined with a scintillation counter.\n7.2—Assessment of the Rate of Transport of Macromolecules at the Level of Normal Human Keratinocytes\nThe applied method was that of explants allowing to obtain, from a biopsy of human skin, keratinocytes in primary cultures. The assays were carried out on keratinocytes between the 2nd and the 4th passage in order to ensure a reproductibility between the different experiences.\nThe keratinocytes were divided into multiwell plates (6 wells) at a rate of 10^5 cells per well in 1 ml of culture medium […] supplemented with insulin and hydrocortisone. The cells were incubated in the presence and absence of the investigated product.\n7.2.2—Transport of Lipids\n(§2) The membrane microsomes were separated by differential centrifugation.\nThe same protocol of capture of [3H] choline was used for the determination of the speed of transport of choline (cf. 6.1.2)"}, "[2]": {"tested_on": "microsomes of human keratinocytes", "test": "Transport of lipids (choline), direct treatment of isolated microsomes", "type": "biochemical", "excerpt": "7.1—Assessment of the Rate of Transport of Macromolecules (Glucids, Lipids and Proteins) in a System of Isolated Microsomes. Direct Effect of the BB Product on Isolated Microsomes:\nThe microsomes of human keratinocytes form a membrane fraction obtained by high-speed differential centrifugation of a cell homogenate. This preparation of microsomes requires the addition of exogenous cofactors such as NADPH.\n7.1.2—Transport of Lipids\nas §1\nThe protein assay was carried out following the BRADFORD method. The increase in absorbance at 595 nm, determined with a spectrophotometer, is proportional to the protein concentration."}, "[3]": {"tested_on": "human keratinocytes in senescence", "test": "Transport of lipids (choline), human keratinocytes in senescence", "type": "cell-based", "procedure": "as §1\n7.3—Assessment of the Rate of Transport of Macromolecules at the Level of Human Keratinocytes in Senescence\nThe senescence is a phenomenon of cellular aging, where the cells are arrested in the phase G1 of the cell cycle and never enter the synthesis phase leading to the cell division. Senescent cells are characterized by their slow metabolism at synthesis and transport of macromolecules levels.\nThe cells in culture deprived of serum stop their growth, but continue to progress through the cell cycle until they reach the phase G1.\nThe assays were performed on keratinocytes, between the 8th and the 10th passage, in order to ensure the presence of senescent cells at control cells level.\nThe keratinocytes were seeded in multiwell plates (6 wells) at a rate of 10^5 cells per well in 3 ml of culture medium […] supplemented with EGF, hydrocortisone, insulin and gentamicyn. Afterwards they are maintained for 5 days in incubator under CO2.\n7.3.2—Transport of Lipids\nas §2\nThe same protocol of capture of [3H] Choline was applied to the determination of the rate of transport of choline (cf. 6.1.2)"}}}
{"smiles": "CN(C)CCOC(c1ccccc1)c1ccccc1", "note": "[DPA, Diphenhydramin]", "values": [{"measurement": "Capture of [^3H]choline", "setting": "[1]; 30 s", "value": 92, "unit": "pmol/mg proteins"}, {"measurement": "Capture of [^3H]choline", "setting": "[1]; 60 s", "value": 115, "unit": "pmol/mg proteins"}, {"measurement": "Capture of [^3H]choline", "setting": "[1]; 90 s", "value": 143, "unit": "pmol/mg proteins"}, {"measurement": "Capture of [^3H]choline", "setting": "[1]; 120 s", "value": 156, "unit": "pmol/mg proteins"}, {"measurement": "rate of transport of lipids (in words)", "setting": "[1]; Diphenhydramin 1 mM alone", "value": "moderately inhibits"}, {"measurement": "Capture of [^3H]choline", "setting": "[2]; 30 s", "value": 74, "unit": "pmol/mg proteins"}, {"measurement": "Capture of [^3H]choline", "setting": "[2]; 60 s", "value": 105, "unit": "pmol/mg proteins"}, {"measurement": "Capture of [^3H]choline", "setting": "[2]; 90 s", "value": 132, "unit": "pmol/mg proteins"}, {"measurement": "Capture of [^3H]choline", "setting": "[2]; 120 s", "value": 142, "unit": "pmol/mg proteins"}, {"measurement": "rate of transport of lipids (in words)", "setting": "[2]; Diphenhydramin 1 mM alone", "value": "strongly inhibits"}, {"measurement": "Capture of [^3H]choline", "setting": "[3]; 30 s", "value": "55 pmol/mg of proteins"}, {"measurement": "Capture of [^3H]choline", "setting": "[3]; 60 s", "value": "79 pmol/mg of proteins"}, {"measurement": "Capture of [^3H]choline", "setting": "[3]; 120 s", "value": "119 pmol/mg of proteins"}, {"measurement": "rate of transport of lipids (in words)", "setting": "[3]; Diphenhydramin 1 mM alone", "value": "strongly inhibits"}]}
